From article PMC8129133, “Polymer-free corticosteroid dimer implants for controlled and sustained drug delivery” (Nature Communications, 2021)
Values joined by “and” are separate entries in the source; they are usually repeats but may differ in a detail not shown here. Identical values can stand only once.

Tests used:
[1] = Tolerability study of intravitreal implants (IOP, IR fundus imaging, histopathology); assay type: in vivo
Experimental: Tolerability study. The tolerability study was conducted at Absorption Systems California (San Diego, CA, USA) under the same animal care and ethics guidelines and approval systems as indicated above in the Pharmacodynamics section. […] Animals were anesthetized with intramuscular ketamine hydrochloride (30–32 mg/kg) and xylazine (5–10 mg/kg), with glycopyrrolate (0.01–0.02 mg/kg, intramuscular) administered concurrently. Eyes were prepped with 1–2 drops of topical proparacaine hydrochloride (0.5%). Prior to implant or sham treatment, eyes received one drop of 10% phenylephrine and 1% tropicamide. 5% betadine solution was used to clean the eye and surrounding area. Group 1 underwent a sham injection procedure, while Group 2 and Group 3 were administered 2× and 3× 30 G × 6 mm Dex-TEG-Dex implants via intravitreal injection, respectively. […] IOP measurements were performed on both eyes at baseline and designated timepoints up to 52 weeks thereafter using a pneumotonometer. Eyes received 1–2 drops of topical proparacaine hydrochloride (0.5%) prior to IOP measurements, and measurements were taken at approximately the same time of day (±2 h). Wide angle infrared (IR) imaging was performed at baseline and at designated timepoints using a Heidelberg Spectralis® imaging platform. Prior to imaging, eyes were dilated with 1 drop each of 10% phenylephrine and 1% tropicamide. […] Animals were euthanized via pentobarbital overdose (150 mg/kg, intravenous).
Histopathology. […] Eyes were then transferred to 70% ethanol. Eyes were embedded in paraffin and sectioned using a microtome. Five sections were generated from each eye and stained with hematoxylin and eosin (H&E). All stained sections were microscopically evaluated by an ACVP veterinary pathologist.

[2] = Composition of pellets as made and after release; assay type: physicochemical; conditions: Supp Fig 5
Experimental: Release studies were carried out using different media, including PBS (pH 7.4, Gibco), 100% FBS (Sigma, F1051), 1% FBS in PBS pH 7.4, and 3.6% BSA (Sigma, A7906) in PBS (pH 7.4, Gibco). Sink conditions were maintained across all of the in vitro release studies through frequent buffer changes, ensuring that the released drug concentration was always at least five times lower than the solubility limit of the drug in the release buffer being used in order to avoid changes in release kinetics caused by drug levels approaching their saturation limit. Samples were incubated in release medium at 37 °C under constant agitation on an orbital shaker at 115 rpm (VWR). At designated timepoints, sampling was performed by complete removal of medium and replenishment with fresh buffer. Sampling timepoints included 24 h and then every 3–4 days thereafter. For PBS release conditions, samples were analyzed directly. For samples with protein (100% FBS, 1% FBS, 3.6% BSA), protein was precipitated by addition of acetonitrile. Samples were vortexed and centrifuged to separate extracted drug from precipitated protein. The supernatant was then analyzed for drug concentration by HPLC.
Supplementary Figure 5 Proportion of dexamethasone in different forms, namely Dex-TEG-Dex, Dex-TEG, and free Dex (Dex – dexamethasone, TEG – triethylene glycol) in heat-molded pellets as-made and […]
the dimer following submersion in release buffer for 14 days. N=4 samples for as made and N=3 samples for 14 days. Data represent the mean ± standard deviation.
(1 picture or pasted object on this page, not shown here)

[3] = Shelf-life stability study (polarized light microscopy); assay type: physicochemical; conditions: extruded amorphous implants
Experimental: Extruded Dex-TEG-Dex implants were assessed for shelf-life stability. Melt extruded Dex-TEG-Dex materials were packaged in the lumen of 30 G needles (BD) and stored in an anhydrous pouch containing desiccant. Samples were aged at 25 °C, 40 °C, and 70 °C for up to 4 months, corresponding to real-time aging of 126 days (25 °C, 4 months), 356 days (40 °C, 4 months), and 2851 days (70 °C, 4 months). At specified time points, samples were removed from their packaging and assessed by polarized light microscopy as outlined below.
Samples were placed on glass slides, cross-sectioned as needed and imaged with a polarizing light microscope (SM-LUX-POL, Leitz) equipped with a Leica EC4 digital camera (Leica) using LAS EZ v.3.2.0 software (Leica). Additionally, a λ-plate compensator was used to assist in evaluation of features with weak birefringence.

[4] = rabbit, in vivo
Experimental: Analysis of samples was conducted using a SCIEX API 5000 mass spectrometer (Applied Biosystems/MDS Sciex), Shimadzu LC-20ADXR HPLC pumps, Shimadzu SCL-10A controller, and HTS-PAL autoinjector (CTC Analytics). Chromatography was performed using a Waters X-Bridge C-18 (3.5 µm; 100 × 2.1 mm) column equipped with a Phenomenex KrudKatcher ULTRA HPLC In-Line Filter (Part AF0-8497). The column was held at a temperature of 40 °C, while the autosampler compartment was maintained at 4 °C. Mobile phases consisted of: (A) 95:5 H2O:MeOH with 2 mM Ammonium Acetate (NH4OAc) and (B) 85:10:5 MeOH:H2O:MeCN with 2 mM NH4OAc. A gradient elution profile was employed, following the trend of: (0 min 30% B), (0.50 min 30% B), (2.50 min 65% B), (2.51 min 100% B), (4.50 min 100% B), (4.51 min 30% B), (6.50 min 30% B). Flow was constant at 0.6 mL min^-1 with an injection volume of 10 µL. For MS parameters, the system was operated in positive ion mode with a TurboIonSpray probe monitoring transitions (±0.2 AMU) of m/z 393.2 → 373.2 for Dex and 397.3 → 377.2 for the Dex-d4 deuterated internal standard. Analyst Version 1.4.2 (Applied Biosystems-MDS Sciex) was used for instrument control, data acquisition, and peak integrations, while calculations including peak area ratios, standard curve regressions, sample concentration values, and descriptive statistics were performed with the assistance of the ALIS2004 validated LIMS.
Dex and internal standard (Dex-d4) were extracted from vitreous humor on ice using protein precipitation. Samples were initially centrifuged at approximately 1500 rcf for 5 min to remove any interfering particulates. Stepwise, the protocol for extraction from vitreous humor was to (1) pipette 50 µL of vitreous humor into an extraction tube; (2) add 13 µL H2O and vortex to mix; (3) add 25 µL internal standard spiking solution (100 ng/mL Dex-d4 in a 1:1 solvent of MeOH:H2O); (4) add 25 µL of make-up reagent (1:1 mixture of MeOH:H2O); (5) vortex mix for 5-10 s at a speed setting of 4 or 5; (6) centrifuge at ~60 rcf for 2 min; (7) add 300 µL of 9:1 MeOH:5 mM NH4OAc at pH 7 to precipitate proteins; (8) cap and vortex mix at full speed for 2 min; (9) Centrifuge at approximately 2700 rcf for 5 min; (10) transfer 300 µL of supernatant to a separate tube; (11) vortex the collected supernatant for 30 s at a low to moderate speed; (12) centrifuge at ~1500 rcf for 5 min; (13) store prepared extract at 4 °C until analysis by LC-MS/MS.
Pharmacokinetics. […] Animals were anesthetized with ketamine (up to ~50 mg/kg) and xylazine (up to ~10 mg/kg). Eyes were surgically prepared before intravitreal procedures with 5% betadine and topical anesthetic eye drops (proparacaine hydrochloride, 0.5%). Prior to test article administration, pupils were dilated with topical application of one drop each of 10% phenylephrine and 1% tropicamide on each cornea.
Implants (30 G × 6 mm Dex-TEG-Dex extruded rods, Ozurdex®) were injected (30 G needle for Dex-TEG-Dex, 22 G needle for Ozurdex®) intravitreally into the eyes of New Zealand White rabbits (female, 1.5–2.5 kg) with terminal timepoints of 1 and 2 weeks and 1, 2, 3, 6, 9, 12, and 14 months. Ocular tissues and plasma were collected at each timepoint and analyzed for Dex by LC/MS/MS. Whole globe eyes were collected into centrifuge tubes and remained frozen for a minimum of 24 h before dissection and tissue collection. During dissection, vitreous humor containing any remaining test article was collected frozen into pre-weighed centrifuge tubes and stored at −80 °C until further processing.

[5] = pellets after release in 100% FBS, t=14d

C[C@@H]1C[C@H]2[C@@H]3CCC4=CC(=O)C=C[C@]4(C)[C@@]3(F)[C@@H](O)C[C@]2(C)[C@@]1(O)C(=O)COC(=O)OCCOCCOCCOC(=O)OCC(=O)[C@@]1(O)[C@H](C)C[C@H]2[C@@H]3CCC4=CC(=O)C=C[C@]4(C)[C@@]3(F)[C@@H](O)C[C@@]21C [Dex-TEG-Dex]
IR fundus images ([1]; two and three implant eyes, baseline and 3, 6, 9, 12 months): unremarkable
tolerability ([1]; two or three 30 G × 6 mm implants intravitreally, 12 months): well tolerated
histopathology findings ([1]; two or three 30 G × 6 mm implants, H&E): no microscopic or macroscopic findings
Proportion of dexamethasone as Dex-TEG-Dex ([2]; heat-molded pellets as-made, t=0): 99.32 and 99.47 and 99.36 and 99.44
Proportion of dexamethasone as Dex-TEG [2, 5]: 0.046 and 0.04
Proportion of dexamethasone as Dex-TEG-Dex [2, 5]: 99.38 and 99.32 and 99.44
crystallinity after shelf-life storage [3]: no evidence of crystallinity
time at which free Dex fell below limits of detection ([4]; female, New Zealand White): 14 months
levels of dexamethasone in the aqueous humor [4]: below the limit of quantification for most samples
